Assay results as given in US11464763B2, “Parasiticidal compositions comprising an isoxazoline active agent, methods and uses thereof” (BOEHRINGER INGELHEIM ANIMAL HEALTH USA INC., priority 2011, dated 2022).
Values after ≈ are worked out from the molar mass of the structure shown.

Experiments:
Amblyomma americanum = experiment: Dose characterization of spot-on formulations against Amblyomma americanum ticks in dogs (Example 4); format: in vivo
Procedure: The efficacy of a spot-on composition of the invention comprising an isoxazoline compound (Cmpd. A) in a carrier vehicle comprising either DES alone or DES+lauryl lactate (LL), against ticks (Amblyomma americanum), in dogs was studied. The compositions contained 3.0%, 4.5%, or 6.0% Cmpd. A in either DES alone or DES+lauryl lactate, which delivered doses of […], respectively, of Cmpd. A to dogs infested with A. Americanum ticks.
Seven Treatment Groups were evaluated. Treatment Group 1 was administered a placebo formulation and served as a control. Treatment Groups 2, 3 and 4 were administered a topical formulation comprising 6.0% (w/v), 4.5% (w/v) and 3.0% (w/v) of Cmpd. A in DES, respectively, corresponding to doses of 4.0 mg/kg, 3.0 mg/kg and 2.0 mg/kg, respectively. Treatment Groups 5, 6 and 7 were administered a topical formulation comprising 6.0% (w/v), 4.5% (w/v) and 3.0% (w/v) of Cmpd. A in DES+9% lauryl lactate, respectively, corresponding to doses of […], 3.0 mg/kg and 2.0 mg/kg body weight Cmpd. A, respectively.
All dogs were treated once topically on Day 0 by parting the hair and applying the solution from a syringe directly onto the skin in a single spot on the midline of the neck between the base of the skull and the shoulder blades.
All dogs were infested with approximately 50 A. americanum on Days −1, 7, 14, 21, 28, 35 and 42. Ticks were counted upon removal on Days 2, 9, 16, 23, 30, 37 and 44. The % reduction of ticks for each Group is presented Table 5 below.

R. sanguineus = experiment: Efficacious plasma concentration (EC90) against R. sanguineus ticks in dogs (Example 13); format: in vivo, Rhipicephalus sanguineus; details: for EC90 (concentration required to achieve 90% efficacy): plasma concentration
[1] = system: Rhipicephalus (Boophilus) microplus; experiment: Pour-on tick weight efficacy against Rhipicephalus (Boophilus) microplus in cattle (Example 15); format: in vivo
Procedure: The efficacy of two pour-on formulations of the invention comprising Compound A at doses of 2.5 mg/kg and 10 mg/kg were tested against infestations of Rhipicephalus (Boophilus) microplus ticks compared with an untreated control. Five healthy head of cattle of 6 to 15 months of age weighing between 100 to 200 kg were used in each study group. Cattle in Group 1 were untreated (control). Cattle in Group 2 were treated on Day 0 with a pour-on formulation comprising Compound A at a concentration of 2.5% (w/v) in DES at a dose of 2.5 mg/kg; and cattle in Group 3 were treated on Day 0 with a pour-on formulation comprising Compound A at a concentration of 10% (w/v) in DES at a dose of 10 mg/kg. Several weeks before treatment, cattle are infested three times a week with approximately 2500 Rhipicephalus (Boophilus) microplus larvae to establish ongoing infestations. Cattle in Groups 2 and 3 were treated with the respective compositions on Day 0 by measuring the required amount of the solution into a marked disposable syringe and applying the material evenly along the mid-line of the back of each animal from the withers to the tail head.
Each animal was challenged by infestation with approximately 5000 R. microplus larvae on Days 7 and 21 and every 14 days thereafter. Ticks dropping from each animal in the previous 24 hours were collected daily and counted from Day 1 until the end of the study. Since the life cycle of the ticks from the point of infestation with larvae until engorged ticks fall off is approximately 21 days (average), the assessment of efficacy for the challenges on Days 7 and 21 and every 14 days thereafter, was done for a range of 7 or 8 days starting approximately 21 days after the challenge. The assessment of efficacy at the beginning of the study was done from day 1 until Day 21.
In addition, the ticks collected were weighed as a group to measure the impact of the treatment on the weight gain of the ticks compared to the control to assess the vitality and reproductive capability of the treated ticks. […] Tables 16A and 16B show the % efficacy of the two pour-on formulations based on the weight of the ticks collected. […] As evidenced from the tables and the figures, the pour-on formulations of the invention at both 2.5 mg/kg and 10 mg/kg provide excellent efficacy against Rhipicephalus (Boophilus) microplus ticks for an extended period of time. […] Furthermore, as shown in Tables 16A and 16B, the two pour-on compositions were extremely effective against ticks based on the weight of the ticks collected. […] The extremely long lasting efficacy above 90% for pour-on composition against Rhipicephalus (Boophilus) microplus ticks is remarkable compared with pour-on formulations known in the art.

## O=C(CNC(=O)c1ccc(C2=NOC(c3cc(Cl)cc(C(F)(F)F)c3)(C(F)(F)F)C2)c2ccccc12)NCC(F)(F)F (centres unmarked) [Compound A, 4-[5-[3-chloro-5-(trifluoromethyl)phenyl]-4,5-dihydro-5-(trifluoromethyl)-3-isoxazolyl]-N-[2-oxo-2-[(2,2,2-trifluoroethyl)amino]ethyl]-1-naphthalanecarboxamide]
Amblyomma americanum; Group 6: 4.5% in DES+9% lauryl lactate, 3.0 mg/kg, Day 44
  % Reduction Ticks: 53.6%
Amblyomma americanum; Group 7: 3.0% in DES+9% lauryl lactate, 2.0 mg/kg, Day 2
  % Reduction Ticks: 98.4%
Amblyomma americanum; Group 7: 3.0% in DES+9% lauryl lactate, 2.0 mg/kg, Day 9
  % Reduction Ticks: 100.0%
Amblyomma americanum; Group 7: 3.0% in DES+9% lauryl lactate, 2.0 mg/kg, Day 16
  % Reduction Ticks: 100.0%
Amblyomma americanum; Group 7: 3.0% in DES+9% lauryl lactate, 2.0 mg/kg, Day 23
  % Reduction Ticks: 80.6%
Amblyomma americanum; Group 7: 3.0% in DES+9% lauryl lactate, 2.0 mg/kg, Day 30
  % Reduction Ticks: 88.9%
Amblyomma americanum; Group 7: 3.0% in DES+9% lauryl lactate, 2.0 mg/kg, Day 37
  % Reduction Ticks: 74.6%
Amblyomma americanum; Group 7: 3.0% in DES+9% lauryl lactate, 2.0 mg/kg, Day 44
  % Reduction Ticks: 42.4%
Amblyomma americanum; Treatment Group 2 (4.0 mg/kg in DES alone), through Week 3
  efficacy against ticks: at least 90%
Amblyomma americanum; Treatment Groups 5 and 6 (4.0 and 3.0 mg/kg in DES+LL), through five weeks
  efficacy against ticks: at least 90%
R. sanguineus; dogs, topical vs oral
  concentration required to achieve 90% efficacy, lower than the concentration required from oral administration: ~32%
R. sanguineus; oral dosage form
  EC90 (concentration required to achieve 90% efficacy): 101 ng/mL (≈ 0.161 µM)
R. sanguineus; topical, separate study
  EC90 (concentration required to achieve 90% efficacy): 69 ng/mL (≈ 0.11 µM)
[1]; Group 2: pour-on 2.5% (w/v) in DES, 2.5 mg/kg, Day 1-21
  Average % Efficacy (Tick Weight): 69.1%
[1]; Group 2: pour-on 2.5% (w/v) in DES, 2.5 mg/kg, Day 28-34, Challenge Day 7
  Average % Efficacy (Tick Weight): 81.8%
[1]; Group 2: pour-on 2.5% (w/v) in DES, 2.5 mg/kg, Day 41-48, Challenge Day 21
  Average % Efficacy (Tick Weight): 72.9%
[1]; Group 2: pour-on 2.5% (w/v) in DES, 2.5 mg/kg, Day 55-62, Challenge Day 35
  Average % Efficacy (Tick Weight): 87.7%
[1]; Group 2: pour-on 2.5% (w/v) in DES, 2.5 mg/kg, Day 69-76, Challenge Day 49
  Average % Efficacy (Tick Weight): 84.8%
[1]; Group 2: pour-on 2.5% (w/v) in DES, 2.5 mg/kg, Day 83-90, Challenge Day 63
  Average % Efficacy (Tick Weight): 87.4%
[1]; Group 2: pour-on 2.5% (w/v) in DES, 2.5 mg/kg, Day 97-104, Challenge Day 77
  Average % Efficacy (Tick Weight): 76.0%
[1]; Group 2: pour-on 2.5% (w/v) in DES, 2.5 mg/kg, Day 111-118, Challenge Day 91
  Average % Efficacy (Tick Weight): 74.0%
[1]; Group 2: pour-on 2.5% (w/v) in DES, 2.5 mg/kg, Day 132-139, Challenge Day 112
  Average % Efficacy (Tick Weight): 83.2%
[1]; Group 2: pour-on 2.5% (w/v) in DES, 2.5 mg/kg, Day 146-153, Challenge Day 126
  Average % Efficacy (Tick Weight): 20.6%
[1]; Group 2: pour-on 2.5% (w/v) in DES, 2.5 mg/kg, Day 160-167, Challenge Day 140
  Average % Efficacy (Tick Weight): 63.4%
[1]; Group 3: pour-on 10% (w/v) in DES, 10 mg/kg, Day 1-21
  Average % Efficacy (Tick Weight): 85.4%
[1]; Group 3: pour-on 10% (w/v) in DES, 10 mg/kg, Day 28-34, Challenge Day 7
  Average % Efficacy (Tick Weight): 95.2%
[1]; Group 3: pour-on 10% (w/v) in DES, 10 mg/kg, Day 41-48, Challenge Day 21
  Average % Efficacy (Tick Weight): 98.3%
[1]; Group 3: pour-on 10% (w/v) in DES, 10 mg/kg, Day 55-62, Challenge Day 35
  Average % Efficacy (Tick Weight): 96.6%
[1]; Group 3: pour-on 10% (w/v) in DES, 10 mg/kg, Day 69-76, Challenge Day 49
  Average % Efficacy (Tick Weight): 99.2%
[1]; Group 3: pour-on 10% (w/v) in DES, 10 mg/kg, Day 83-90, Challenge Day 63
  Average % Efficacy (Tick Weight): 98.6%
[1]; Group 3: pour-on 10% (w/v) in DES, 10 mg/kg, Day 97-104, Challenge Day 77
  Average % Efficacy (Tick Weight): 90.2%
[1]; Group 3: pour-on 10% (w/v) in DES, 10 mg/kg, Day 111-118, Challenge Day 91
  Average % Efficacy (Tick Weight): 96.0%
[1]; Group 3: pour-on 10% (w/v) in DES, 10 mg/kg, Day 132-139, Challenge Day 112
  Average % Efficacy (Tick Weight): 92.4%
[1]; Group 3: pour-on 10% (w/v) in DES, 10 mg/kg, Day 146-153, Challenge Day 126
  Average % Efficacy (Tick Weight): 61.4%
[1]; Group 3: pour-on 10% (w/v) in DES, 10 mg/kg, Day 160-167, Challenge Day 140
  Average % Efficacy (Tick Weight): 76.3%
